Legend:
D(3) dopamine receptor = D(3) dopamine receptor (Homo sapiens, UniProt P35462)
Acetylcholinesterase = Acetylcholinesterase (Homo sapiens, UniProt P22303); format: functional
[1] = target: Sodium-dependent noradrenaline transporter (Homo sapiens, UniProt P23975)
D(1A) dopamine receptor = D(1A) dopamine receptor (Homo sapiens, UniProt P21728)
[2] = target: Prostaglandin G/H synthase 1 (Homo sapiens, UniProt P23219); format: functional
[3] = target: 3',5'-cyclic-AMP phosphodiesterase 4A (Homo sapiens, UniProt P27815); format: functional
3',5'-cyclic-AMP phosphodiesterase 4A, sequence (P27815 whole entry): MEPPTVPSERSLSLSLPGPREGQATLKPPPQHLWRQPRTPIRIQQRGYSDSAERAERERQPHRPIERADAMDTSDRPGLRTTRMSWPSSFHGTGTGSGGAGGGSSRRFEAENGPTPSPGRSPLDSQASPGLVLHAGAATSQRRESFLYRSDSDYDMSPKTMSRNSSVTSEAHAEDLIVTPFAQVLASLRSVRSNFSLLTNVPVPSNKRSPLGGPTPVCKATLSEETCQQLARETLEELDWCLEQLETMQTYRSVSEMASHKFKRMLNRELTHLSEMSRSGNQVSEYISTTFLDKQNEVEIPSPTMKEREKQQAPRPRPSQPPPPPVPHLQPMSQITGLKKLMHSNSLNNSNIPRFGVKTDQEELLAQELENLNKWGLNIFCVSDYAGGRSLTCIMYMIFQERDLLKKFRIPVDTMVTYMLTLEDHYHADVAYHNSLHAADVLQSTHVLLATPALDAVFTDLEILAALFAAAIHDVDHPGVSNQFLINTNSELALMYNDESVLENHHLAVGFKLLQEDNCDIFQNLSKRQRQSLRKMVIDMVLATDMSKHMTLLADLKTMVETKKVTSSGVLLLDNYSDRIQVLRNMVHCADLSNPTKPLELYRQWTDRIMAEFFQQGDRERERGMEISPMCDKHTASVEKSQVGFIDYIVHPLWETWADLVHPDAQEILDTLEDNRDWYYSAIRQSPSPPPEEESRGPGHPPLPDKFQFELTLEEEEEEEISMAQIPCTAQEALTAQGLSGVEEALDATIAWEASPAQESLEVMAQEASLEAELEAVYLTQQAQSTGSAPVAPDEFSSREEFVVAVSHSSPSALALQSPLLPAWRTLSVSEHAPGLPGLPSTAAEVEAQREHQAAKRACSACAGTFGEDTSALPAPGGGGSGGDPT

Prothrombin = Prothrombin (Homo sapiens, UniProt P00734); format: functional
[4] = target: T1, Alpha-2A adrenergic receptor (Homo sapiens, UniProt P08913)
T1 sequence (P08913 whole entry): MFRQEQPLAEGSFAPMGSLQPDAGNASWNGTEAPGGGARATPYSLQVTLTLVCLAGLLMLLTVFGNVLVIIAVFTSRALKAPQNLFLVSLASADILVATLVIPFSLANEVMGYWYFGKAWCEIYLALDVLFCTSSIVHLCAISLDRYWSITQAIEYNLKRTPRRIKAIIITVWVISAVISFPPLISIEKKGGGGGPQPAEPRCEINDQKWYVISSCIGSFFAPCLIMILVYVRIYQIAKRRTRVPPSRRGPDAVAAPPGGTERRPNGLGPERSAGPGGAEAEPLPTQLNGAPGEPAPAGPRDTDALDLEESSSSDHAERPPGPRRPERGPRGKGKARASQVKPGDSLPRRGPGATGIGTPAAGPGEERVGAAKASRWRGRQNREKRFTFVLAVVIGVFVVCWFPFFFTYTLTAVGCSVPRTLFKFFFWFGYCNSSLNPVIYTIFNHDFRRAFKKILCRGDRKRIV

[5] = target: T2, Amine oxidase [flavin-containing] A (Homo sapiens, UniProt P21397); format: functional
T2 sequence (P21397 whole entry): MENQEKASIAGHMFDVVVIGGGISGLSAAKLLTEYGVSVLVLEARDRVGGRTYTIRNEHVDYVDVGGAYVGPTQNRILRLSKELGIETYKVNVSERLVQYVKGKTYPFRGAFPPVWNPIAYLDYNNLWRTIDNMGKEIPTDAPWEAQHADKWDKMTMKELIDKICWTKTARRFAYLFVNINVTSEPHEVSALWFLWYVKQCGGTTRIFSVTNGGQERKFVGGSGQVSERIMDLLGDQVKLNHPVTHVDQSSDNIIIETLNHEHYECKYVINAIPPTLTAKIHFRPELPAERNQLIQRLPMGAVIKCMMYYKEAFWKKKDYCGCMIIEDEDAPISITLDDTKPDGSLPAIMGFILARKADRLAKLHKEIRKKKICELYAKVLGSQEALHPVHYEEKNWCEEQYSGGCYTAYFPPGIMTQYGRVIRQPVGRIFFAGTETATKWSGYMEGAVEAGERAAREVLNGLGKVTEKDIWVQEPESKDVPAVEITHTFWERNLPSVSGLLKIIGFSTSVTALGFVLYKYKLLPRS

[6] = target: Sodium-dependent dopamine transporter (Homo sapiens, UniProt Q01959)
Sodium-dependent dopamine transporter, sequence (Q01959 whole entry): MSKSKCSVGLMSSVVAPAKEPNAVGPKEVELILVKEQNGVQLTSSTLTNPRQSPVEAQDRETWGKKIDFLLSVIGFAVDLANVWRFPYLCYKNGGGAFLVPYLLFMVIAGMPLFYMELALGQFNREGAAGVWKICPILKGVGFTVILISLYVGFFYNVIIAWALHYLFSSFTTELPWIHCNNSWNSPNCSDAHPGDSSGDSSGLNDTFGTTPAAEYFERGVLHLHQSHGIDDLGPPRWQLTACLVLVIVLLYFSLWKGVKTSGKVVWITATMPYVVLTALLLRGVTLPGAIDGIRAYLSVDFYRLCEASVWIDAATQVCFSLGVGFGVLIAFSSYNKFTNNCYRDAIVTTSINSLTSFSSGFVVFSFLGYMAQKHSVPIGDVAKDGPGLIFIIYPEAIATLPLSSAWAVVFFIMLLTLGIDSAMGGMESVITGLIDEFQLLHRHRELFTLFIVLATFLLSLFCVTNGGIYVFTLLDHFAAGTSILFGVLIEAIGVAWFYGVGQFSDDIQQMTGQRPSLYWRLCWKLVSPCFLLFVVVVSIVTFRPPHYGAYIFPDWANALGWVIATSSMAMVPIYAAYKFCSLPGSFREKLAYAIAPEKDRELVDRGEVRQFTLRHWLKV

[7] = target: T3, 5-hydroxytryptamine receptor 1A (Homo sapiens, UniProt P08908); format: functional, cell-based
T3 sequence (P08908 whole entry): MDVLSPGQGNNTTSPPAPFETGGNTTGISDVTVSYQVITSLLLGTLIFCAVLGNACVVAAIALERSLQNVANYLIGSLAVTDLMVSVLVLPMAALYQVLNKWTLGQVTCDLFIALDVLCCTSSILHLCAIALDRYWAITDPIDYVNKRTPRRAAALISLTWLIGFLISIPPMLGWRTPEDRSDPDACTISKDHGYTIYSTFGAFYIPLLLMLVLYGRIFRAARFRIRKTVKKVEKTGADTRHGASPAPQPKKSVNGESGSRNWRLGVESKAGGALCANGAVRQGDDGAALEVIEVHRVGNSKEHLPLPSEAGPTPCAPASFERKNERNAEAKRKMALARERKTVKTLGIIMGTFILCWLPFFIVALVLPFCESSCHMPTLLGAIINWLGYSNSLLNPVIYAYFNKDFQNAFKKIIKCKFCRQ
Also: assay procedure not described here.

D(3) dopamine receptor, sequence (P35462 whole entry): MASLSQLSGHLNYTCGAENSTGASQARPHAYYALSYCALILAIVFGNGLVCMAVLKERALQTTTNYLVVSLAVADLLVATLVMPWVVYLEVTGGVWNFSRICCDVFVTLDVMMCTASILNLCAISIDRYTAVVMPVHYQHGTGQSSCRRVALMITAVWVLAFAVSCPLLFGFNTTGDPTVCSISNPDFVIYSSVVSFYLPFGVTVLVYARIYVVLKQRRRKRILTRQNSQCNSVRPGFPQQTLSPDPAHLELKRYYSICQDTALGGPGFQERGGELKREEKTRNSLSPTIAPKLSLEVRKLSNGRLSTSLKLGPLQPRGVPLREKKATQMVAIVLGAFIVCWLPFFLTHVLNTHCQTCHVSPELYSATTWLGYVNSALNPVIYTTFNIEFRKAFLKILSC
Sodium-dependent noradrenaline transporter, sequence (P23975 whole entry): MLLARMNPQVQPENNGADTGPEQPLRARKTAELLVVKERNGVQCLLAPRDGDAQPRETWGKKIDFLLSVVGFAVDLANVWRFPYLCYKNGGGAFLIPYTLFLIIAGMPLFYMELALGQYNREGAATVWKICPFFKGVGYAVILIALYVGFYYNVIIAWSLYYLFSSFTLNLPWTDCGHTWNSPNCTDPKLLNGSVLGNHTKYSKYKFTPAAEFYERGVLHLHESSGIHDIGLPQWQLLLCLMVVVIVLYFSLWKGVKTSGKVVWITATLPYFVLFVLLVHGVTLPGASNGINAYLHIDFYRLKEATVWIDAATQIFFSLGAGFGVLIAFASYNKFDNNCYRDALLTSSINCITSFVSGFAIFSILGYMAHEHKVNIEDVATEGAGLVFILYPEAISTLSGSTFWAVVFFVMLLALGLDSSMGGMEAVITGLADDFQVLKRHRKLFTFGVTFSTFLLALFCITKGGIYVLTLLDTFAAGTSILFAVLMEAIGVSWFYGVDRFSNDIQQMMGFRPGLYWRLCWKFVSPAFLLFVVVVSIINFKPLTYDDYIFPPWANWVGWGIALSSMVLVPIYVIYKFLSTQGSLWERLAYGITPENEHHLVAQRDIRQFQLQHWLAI
D(1A) dopamine receptor, sequence (P21728 whole entry): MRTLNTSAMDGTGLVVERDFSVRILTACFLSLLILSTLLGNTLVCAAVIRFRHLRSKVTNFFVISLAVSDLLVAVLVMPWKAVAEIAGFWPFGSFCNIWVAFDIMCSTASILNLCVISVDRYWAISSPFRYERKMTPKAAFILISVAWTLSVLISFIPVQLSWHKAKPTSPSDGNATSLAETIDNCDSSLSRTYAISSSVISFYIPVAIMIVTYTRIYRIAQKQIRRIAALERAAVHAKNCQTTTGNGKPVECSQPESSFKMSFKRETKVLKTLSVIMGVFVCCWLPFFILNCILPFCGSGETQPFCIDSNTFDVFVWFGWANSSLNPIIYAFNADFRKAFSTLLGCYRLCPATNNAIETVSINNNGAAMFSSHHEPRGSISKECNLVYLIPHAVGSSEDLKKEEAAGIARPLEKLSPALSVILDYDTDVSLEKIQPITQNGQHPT
Acetylcholinesterase, sequence (P22303 whole entry): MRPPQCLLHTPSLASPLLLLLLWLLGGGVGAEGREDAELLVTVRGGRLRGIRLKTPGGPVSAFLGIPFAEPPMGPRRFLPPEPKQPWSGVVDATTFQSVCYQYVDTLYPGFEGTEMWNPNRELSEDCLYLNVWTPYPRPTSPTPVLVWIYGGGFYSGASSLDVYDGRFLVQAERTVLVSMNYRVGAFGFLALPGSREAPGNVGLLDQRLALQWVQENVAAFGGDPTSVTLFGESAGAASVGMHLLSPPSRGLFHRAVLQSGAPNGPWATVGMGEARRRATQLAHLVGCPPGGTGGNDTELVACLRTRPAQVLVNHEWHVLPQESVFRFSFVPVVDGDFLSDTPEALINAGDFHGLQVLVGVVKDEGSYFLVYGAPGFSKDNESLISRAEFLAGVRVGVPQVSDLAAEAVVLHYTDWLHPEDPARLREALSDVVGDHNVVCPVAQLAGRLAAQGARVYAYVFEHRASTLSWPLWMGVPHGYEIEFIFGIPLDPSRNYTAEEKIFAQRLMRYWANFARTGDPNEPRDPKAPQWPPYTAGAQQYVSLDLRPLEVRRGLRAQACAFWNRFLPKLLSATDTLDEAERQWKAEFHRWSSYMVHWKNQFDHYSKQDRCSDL
Prostaglandin G/H synthase 1, sequence (P23219 whole entry): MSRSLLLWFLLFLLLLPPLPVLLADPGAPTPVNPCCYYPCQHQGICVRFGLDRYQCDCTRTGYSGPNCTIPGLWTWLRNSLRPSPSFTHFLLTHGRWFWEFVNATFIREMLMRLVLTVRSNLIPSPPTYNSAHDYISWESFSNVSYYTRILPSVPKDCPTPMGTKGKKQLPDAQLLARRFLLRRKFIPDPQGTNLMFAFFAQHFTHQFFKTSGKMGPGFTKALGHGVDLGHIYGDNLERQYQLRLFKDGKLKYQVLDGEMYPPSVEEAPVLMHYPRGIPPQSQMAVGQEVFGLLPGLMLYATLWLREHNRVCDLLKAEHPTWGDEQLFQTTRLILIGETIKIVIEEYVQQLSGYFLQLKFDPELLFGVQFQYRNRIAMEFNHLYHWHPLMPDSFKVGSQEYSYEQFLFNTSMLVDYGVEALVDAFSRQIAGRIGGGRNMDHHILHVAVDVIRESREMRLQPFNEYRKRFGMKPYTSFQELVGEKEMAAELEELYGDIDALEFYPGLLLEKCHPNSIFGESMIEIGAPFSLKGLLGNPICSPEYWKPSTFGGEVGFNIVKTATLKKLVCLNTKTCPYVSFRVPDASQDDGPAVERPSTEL

| Structure (SMILES) | AC50 (D(3) dopamine receptor) [µM] | AC50 (Acetylcholinesterase) [µM] | AC50 [1] [µM] | AC50 (D(1A) dopamine receptor) [µM] | AC50 [2] [µM] | AC50 [3] [µM] | AC50 (Prothrombin) [µM] | AC50 [4] [µM] | AC50 [5] [µM] | AC50 [6] [µM] | AC50 [7] [µM] |
| --- | --- | --- | --- | --- | --- | --- | --- | --- | --- | --- | --- |
| CN(CC1(C)CCCO1)S(=O)(=O)c1ccc(Cl)c(S(N)(=O)=O)c1 (stereo unspecified) [MEFRUSIDE] | > 30 | > 30 | > 30 | > 30 | > 30 | > 30 | > 30 | > 30 | > 30 | > 30 |  |
| CC[C@H](C)C[C@H](C)CCCCCCCCC(=O)N[C@H]1C[C@@H](O)[C@@H](NCCN)NC(=O)[C@@H]2[C@@H](O)CCN2C(=O)[C@H]([C@H](O)CCN)NC(=O)[C@H]([C@H](O)[C@@H](O)c2ccc(O)cc2)NC(=O)[C@@H]2C[C@@H](O)CN2C(=O)[C@H]([C@@H](C)O)NC1=O [CASPOFUNGIN] | > 30 | > 30 | 5.03 | 8.83 | 3.63 | > 30 | > 30 | > 30 | > 30 | 4.13 |  |
| CO[C@H]1/C=C/O[C@@]2(C)Oc3c(C)c(O)c4c(O)c(c(/C=N/N5CCN(C)CC5)c(O)c4c3C2=O)NC(=O)/C(C)=C\C=C\[C@H](C)[C@H](O)[C@@H](C)[C@@H](O)[C@@H](C)[C@H](OC(C)=O)[C@@H]1C [RIFAMPIN] |  |  |  |  |  |  |  |  |  |  | > 30 |
| Cc1ccccc1C(=O)Nc1ccc(C(=O)N2CCCC(N(C)C)c3ccccc32)cc1 (stereo unspecified) [MOZAVAPTAN] | > 30 | > 30 | > 30 | > 30 | > 30 | > 30 | > 30 | > 30 | > 30 | > 30 |  |
| CN1CCC(=C2c3ccccc3Sc3ccccc32)CC1 [PIMETHIXENE] | 0.0497 | > 30 | 0.142 | 0.0552 | > 30 | > 30 | > 30 | 0.0422 | > 30 | 11.2 |  |
| C/C=C/C/C=C/CCC(=O)[C@H]1O[C@H]1C(N)=O [CERULENIN] | > 30 | > 30 | > 30 | > 30 | 15.5 | > 30 | > 30 | > 30 | > 30 | > 30 |  |
| CC(C)Cc1ccc(C(C)C(=O)O)cc1 (stereo unspecified) [IBUPROFEN] | > 30 | > 30 | > 30 | > 30 |  | > 30 | > 30 | > 30 | > 30 | > 30 | > 10 |
| O=C(O)CO [GLYCOLIC ACID] | > 30 | > 30 | > 30 | > 30 | > 30 | > 30 | > 30 | > 30 | > 30 | > 30 |  |
| CC[C@H](c1ccc(O)cc1)[C@@H](CC)c1ccc(O)cc1 [HEXESTROL] | 17.5 | > 30 | 8.77 | 15.5 | 16.4 | > 30 | > 30 | > 30 | > 30 | 3.31 |  |
| C[N+](C)(C)C[C@H](O)CC(=O)[O-] [LEVOCARNITINE] | > 30 | > 30 | > 30 | > 30 | > 30 | > 30 | > 30 | > 30 | > 30 | > 30 |  |
| O=C1/C(=C2\Nc3ccc(S(=O)(=O)O)cc3C2=O)Nc2ccc(S(=O)(=O)O)cc21 [INDIGOTINDISULFONATE] | > 30 | > 30 | > 30 | > 30 | > 30 | > 30 | 2.83 | > 30 | > 30 | > 30 |  |
| FC(F)(F)c1ccc(CNc2ccc(Cc3c[nH]c4ncc(Cl)cc34)cn2)cn1 [PEXIDARTINIB] | 10.2 | > 30 | 3.96 | 20.2 | > 30 | > 30 | > 30 | 17.1 | > 30 | 9.3 |  |

From ChEMBL document CHEMBL5291721, “A preclinical secondary pharmacology resource illuminates target-adverse drug reaction associations of marketed drugs” (Nat Commun, 2023)
